According to PubChem BioAssay (NCI):
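Tested at 5 concentrations; 48 h exposure; 96-well plates; endpoints linearly interpolated, else capped at highest concentration. The concentration for 50% growth inhibition is given as GI50. Definition used: TGI = concentration required for complete inhibition of growth.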

Legend:
Experiment in all cases: NCI anticancer screen, dose series, 48 h
HL-60(TB) leukemia = tested on: HL-60(TB) leukemia
SK-MEL-28 melanoma = tested on: SK-MEL-28 melanoma
CAKI-1 renal = tested on: CAKI-1 renal
HCT-116 colon = tested on: HCT-116 colon
HCC-2998 colon = tested on: HCC-2998 colon
SF-539 CNS = tested on: SF-539 CNS
COLO 205 colon = tested on: COLO 205 colon
HOP-62 NSCLC = tested on: HOP-62 NSCLC
SF-295 CNS = tested on: SF-295 CNS
M14 melanoma = tested on: M14 melanoma

CCOc1cc(/C=C/C(=O)C(C(=O)/C=C/c2ccc(OC(=O)CNc3nnc(C)s3)c(OCC)c2)C(=O)CNc2nnc(C)s2)ccc1OC(=O)CNc1nnc(C)s1
GI50 (HL-60(TB) leukemia): 0.554 µM | TGI (HL-60(TB) leukemia): 3.47 µM | GI50 (SK-MEL-28 melanoma): 1.45 µM | TGI (SK-MEL-28 melanoma): 2.92 µM | GI50 (CAKI-1 renal): 2.8 µM | TGI (CAKI-1 renal): > 29 µM | GI50 (HCT-116 colon): 0.952 µM | TGI (HCT-116 colon): 4.42 µM | GI50 (HCC-2998 colon): 1.69 µM | TGI (HCC-2998 colon): 3.33 µM | GI50 (SF-539 CNS): 1.17 µM | TGI (SF-539 CNS): 3.42 µM | GI50 (COLO 205 colon): 1.7 µM | TGI (COLO 205 colon): 3.54 µM | GI50 (HOP-62 NSCLC): 3.52 µM | TGI (HOP-62 NSCLC): 11.8 µM | GI50 (SF-295 CNS): 3.08 µM | TGI (SF-295 CNS): 10.7 µM | GI50 (M14 melanoma): 2.4 µM | TGI (M14 melanoma): 10 µM

CS(=N)(=O)CCC(N)P(=O)(O)O (centres undefined)
TGI (HL-60(TB) leukemia): > 100 µM | TGI (SK-MEL-28 melanoma): > 100 µM | TGI (CAKI-1 renal): > 100 µM | TGI (HCT-116 colon): > 100 µM | TGI (HCC-2998 colon): > 100 µM | TGI (SF-539 CNS): > 100 µM | TGI (COLO 205 colon): > 100 µM | TGI (HOP-62 NSCLC): > 100 µM | TGI (SF-295 CNS): > 100 µM | TGI (M14 melanoma): > 100 µM

NC1=NC2=C(CCCC2)C(c2cccs2)S1 (centres undefined)
TGI (HL-60(TB) leukemia): > 100 µM | TGI (SK-MEL-28 melanoma): > 100 µM | TGI (CAKI-1 renal): > 100 µM | TGI (HCT-116 colon): > 100 µM | TGI (HCC-2998 colon): > 100 µM | TGI (SF-539 CNS): > 100 µM | TGI (COLO 205 colon): > 100 µM | TGI (HOP-62 NSCLC): > 100 µM | TGI (SF-295 CNS): > 100 µM | TGI (M14 melanoma): > 100 µM

CC(=O)CC(=O)NC=O
TGI (HL-60(TB) leukemia): > 100 µM | TGI (SK-MEL-28 melanoma): > 100 µM | TGI (CAKI-1 renal): > 100 µM | TGI (HCT-116 colon): > 100 µM | TGI (HCC-2998 colon): > 100 µM | TGI (SF-539 CNS): > 100 µM | TGI (COLO 205 colon): > 100 µM | TGI (HOP-62 NSCLC): > 100 µM | TGI (SF-295 CNS): > 100 µM | TGI (M14 melanoma): > 100 µM

CCCOc1ccc(/C=N/Nc2cc(C)nc3ccc(Cl)cc23)cc1
GI50 (HL-60(TB) leukemia): 1.83 µM | TGI (HL-60(TB) leukemia): 3.78 µM | GI50 (SK-MEL-28 melanoma): 1.73 µM | TGI (SK-MEL-28 melanoma): 3.15 µM | GI50 (CAKI-1 renal): 1.78 µM | TGI (CAKI-1 renal): 3.2 µM | GI50 (HCT-116 colon): 1.7 µM | TGI (HCT-116 colon): 3.32 µM | GI50 (HCC-2998 colon): 2.03 µM | TGI (HCC-2998 colon): 3.53 µM | GI50 (SF-539 CNS): 1.79 µM | TGI (SF-539 CNS): 3.2 µM | GI50 (COLO 205 colon): 1.82 µM | TGI (COLO 205 colon): 3.4 µM | GI50 (HOP-62 NSCLC): 1.58 µM | TGI (HOP-62 NSCLC): 2.98 µM | GI50 (SF-295 CNS): 1.72 µM | TGI (SF-295 CNS): 3.2 µM | GI50 (M14 melanoma): 1.69 µM | TGI (M14 melanoma): 3.23 µM

O=C(Nc1ccc(I)cc1)c1cccc([N+](=O)[O-])c1O
GI50 (HL-60(TB) leukemia): 2.96 µM | TGI (HL-60(TB) leukemia): 9.32 µM | GI50 (SK-MEL-28 melanoma): 4.63 µM | TGI (SK-MEL-28 melanoma): > 100 µM | GI50 (CAKI-1 renal): 2.91 µM | TGI (CAKI-1 renal): > 100 µM | GI50 (HCT-116 colon): 3.11 µM | TGI (HCT-116 colon): 13.8 µM | GI50 (HCC-2998 colon): 4.19 µM | TGI (HCC-2998 colon): 44.3 µM | GI50 (SF-539 CNS): 4.85 µM | TGI (SF-539 CNS): > 100 µM | GI50 (COLO 205 colon): 3.66 µM | TGI (COLO 205 colon): 34.6 µM | GI50 (HOP-62 NSCLC): 6.93 µM | TGI (HOP-62 NSCLC): > 100 µM | GI50 (SF-295 CNS): 2.39 µM | TGI (SF-295 CNS): 11.3 µM | GI50 (M14 melanoma): 3.54 µM | TGI (M14 melanoma): 49.5 µM

N#Cc1ccc(C(C2C(=O)NC(=O)NC2=O)C2C(=O)NC(=O)NC2=O)cc1
TGI (HL-60(TB) leukemia): > 100 µM | TGI (SK-MEL-28 melanoma): > 100 µM | TGI (CAKI-1 renal): > 100 µM | TGI (HCT-116 colon): > 100 µM | TGI (HCC-2998 colon): > 100 µM | TGI (SF-539 CNS): > 100 µM | TGI (COLO 205 colon): > 100 µM | TGI (HOP-62 NSCLC): > 100 µM | TGI (SF-295 CNS): > 100 µM | TGI (M14 melanoma): > 100 µM

CN(C)c1ccc(/C=c2\sc3nnc(-c4cccnc4)n3c2=O)cc1
TGI (HL-60(TB) leukemia): > 100 µM | TGI (SK-MEL-28 melanoma): > 100 µM | TGI (CAKI-1 renal): > 100 µM | TGI (HCT-116 colon): > 100 µM | TGI (HCC-2998 colon): > 100 µM | TGI (SF-539 CNS): > 100 µM | TGI (COLO 205 colon): > 100 µM | TGI (HOP-62 NSCLC): > 100 µM | TGI (SF-295 CNS): > 100 µM | TGI (M14 melanoma): > 100 µM

O=[N+]([O-])c1ccc(/C(Cl)=C/c2ccc(/C=C(\Cl)c3ccc([N+](=O)[O-])cc3[N+](=O)[O-])cc2)c([N+](=O)[O-])c1
TGI (HL-60(TB) leukemia): > 100 µM | TGI (SK-MEL-28 melanoma): > 100 µM | TGI (CAKI-1 renal): > 100 µM | TGI (HCT-116 colon): > 100 µM | TGI (HCC-2998 colon): > 100 µM | TGI (SF-539 CNS): > 100 µM | TGI (COLO 205 colon): > 100 µM | TGI (HOP-62 NSCLC): > 100 µM | TGI (SF-295 CNS): > 100 µM | TGI (M14 melanoma): > 100 µM

FC(F)(F)c1cc(-c2ncn(/C=C\c3nnco3)n2)cc(C(F)(F)F)c1
GI50 (HL-60(TB) leukemia): 0.0485 µM | TGI (HL-60(TB) leukemia): 13.4 µM | GI50 (SK-MEL-28 melanoma): 0.125 µM | TGI (SK-MEL-28 melanoma): 49.3 µM | GI50 (CAKI-1 renal): 0.0497 µM | TGI (CAKI-1 renal): > 38.9 µM | GI50 (HCT-116 colon): 0.0621 µM | TGI (HCT-116 colon): > 41.9 µM | GI50 (HCC-2998 colon): 0.317 µM | TGI (HCC-2998 colon): 11.1 µM | GI50 (SF-539 CNS): 0.0197 µM | TGI (SF-539 CNS): 0.0744 µM | GI50 (COLO 205 colon): 0.055 µM | TGI (COLO 205 colon): 14 µM | GI50 (HOP-62 NSCLC): 0.282 µM | TGI (HOP-62 NSCLC): 28.3 µM | GI50 (SF-295 CNS): 0.0634 µM | TGI (SF-295 CNS): > 43.3 µM | GI50 (M14 melanoma): 0.372 µM | TGI (M14 melanoma): > 34.6 µM

COc1ccc(C2CC(c3ccc4ccccc4c3)=NN2c2nc(O)c(C3=c4cc(OC)ccc4=NC3=O)s2)cc1 (centres undefined)
GI50 (HL-60(TB) leukemia): > 57.9 µM | TGI (HL-60(TB) leukemia): > 100 µM | GI50 (SK-MEL-28 melanoma): 0.0932 µM | TGI (SK-MEL-28 melanoma): 0.334 µM | GI50 (CAKI-1 renal): 0.349 µM | GI50 (HCT-116 colon): 0.243 µM | TGI (HCT-116 colon): 0.66 µM | GI50 (HCC-2998 colon): 0.0762 µM | TGI (HCC-2998 colon): 0.265 µM | GI50 (SF-539 CNS): 0.741 µM | TGI (SF-539 CNS): 4.34 µM | GI50 (COLO 205 colon): 0.0382 µM | TGI (COLO 205 colon): 0.129 µM | GI50 (HOP-62 NSCLC): 0.0633 µM | TGI (HOP-62 NSCLC): 0.158 µM | GI50 (SF-295 CNS): 0.0608 µM | TGI (SF-295 CNS): 0.165 µM | GI50 (M14 melanoma): 0.072 µM | TGI (M14 melanoma): 0.726 µM

Fc1ccc(C2SCc3nc4ccccc4n32)cc1F (centres undefined)
TGI (HL-60(TB) leukemia): 26.2 µM | TGI (SK-MEL-28 melanoma): 66.7 µM | TGI (CAKI-1 renal): > 100 µM | TGI (HCT-116 colon): > 100 µM | TGI (HCC-2998 colon): > 100 µM | TGI (SF-539 CNS): > 100 µM | TGI (COLO 205 colon): 90.3 µM | TGI (HOP-62 NSCLC): > 100 µM | TGI (SF-295 CNS): > 100 µM | TGI (M14 melanoma): 76.7 µM
